In this experiment the test system is L1210 leukemia ip in BDF1 mice, survival T/C. In words: NCI In Vivo Anticancer Drug Screen. Data for tumor model L1210 Leukemia (intraperitoneal) in B6D2F1 (BDF1) mice. Particulars: endpoint: mean survival time, higher = longer survival. The method, boiled down:
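Mice bearing the transplanted tumor received compound or vehicle. Survival of the treated group was divided by that of the vehicle-treated control group to give the ratio.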

[1] abbreviates: dose: 100.0 mg/kg/injection, schedule: Q04DX003 (ip), vehicle: Klucel (hydroxypropylcellulose) (HPC).
Setting [2] is: dose: 200.0 mg/kg/injection, schedule: Q04DX003 (ip), vehicle: Klucel (hydroxypropylcellulose) (HPC).
Where [3] appears, read: dose: 400.0 mg/kg/injection, schedule: Q04DX003 (ip), vehicle: Klucel (hydroxypropylcellulose) (HPC).
Setting [4] is: dose: 100.0 mg/kg/injection, schedule: Q01DX001 (ip), vehicle: Klucel (hydroxypropylcellulose) (HPC).
Setting [5] is: dose: 100.0 mg/kg/injection, schedule: Q01DX009 (ip), vehicle: Klucel (hydroxypropylcellulose) (HPC).
[6] abbreviates: dose: 200.0 mg/kg/injection, schedule: Q01DX001 (ip), vehicle: Klucel (hydroxypropylcellulose) (HPC).
[7] abbreviates: dose: 200.0 mg/kg/injection, schedule: Q01DX009 (ip), vehicle: Klucel (hydroxypropylcellulose) (HPC).
Setting [8] is: dose: 400.0 mg/kg/injection, schedule: Q01DX001 (ip), vehicle: Klucel (hydroxypropylcellulose) (HPC).
Where [9] appears, read: dose: 400.0 mg/kg/injection, schedule: Q01DX009 (ip), vehicle: Klucel (hydroxypropylcellulose) (HPC).
[10] abbreviates: dose: 100.0 mg/kg/injection, schedule: Q04DX003 (ip), vehicle: saline with Tween-80.
Setting [11] is: dose: 200.0 mg/kg/injection, schedule: Q04DX003 (ip), vehicle: saline with Tween-80.
Where [12] appears, read: dose: 400.0 mg/kg/injection, schedule: Q04DX003 (ip), vehicle: saline with Tween-80.
Where [13] appears, read: dose: 100.0 mg/kg/injection, schedule: Q04DX002 (ip), vehicle: saline with Tween-80.

Each structure is given as a SMILES string. Where “and” joins values, the source holds several entries; their conditions need not be identical. Equal entries are not always repeated. Toxic doses and inconclusive results are not listed.

Regarding `COc1cc2c(cc1OC)/C(=N\O)CCCC2`, the T/C (dose: 100.0 mg/kg/injection, schedule: Q01DX009 (ip), vehicle: saline sonified) was 97 % of control; the T/C under setting [1] was 96 % of control; the T/C (dose: 200.0 mg/kg/injection, schedule: Q01DX009 (ip), vehicle: saline sonified) was 94 % of control; the T/C under setting [2] was 94 % of control; the T/C (dose: 400.0 mg/kg/injection, schedule: Q01DX009 (ip), vehicle: saline sonified) is 100 % of control; the T/C under setting [3] is 97 % of control.

As to `Clc1ccc(S/C=C/c2ccccc2)cc1`, the T/C is 103 % of control under setting [4]; 91 % of control under setting [5]; 102 % of control under setting [1]; 110 % of control under setting [6]; 100 % of control under setting [7]; 98 % of control under setting [2]. Also, the T/C by setting is: under setting [8], 97 % of control; under setting [9], 91 % of control; under setting [3], 104 % of control.

In the case of `CCCCCCCCCCCCCCCC[N+]1(CC)CCCC1`, the T/C reads like this: (dose: 25.0 mg/kg/injection, schedule: Q04DX002 (ip), vehicle: saline) 96 % of control; (dose: 50.0 mg/kg/injection, schedule: Q04DX002 (ip), vehicle: saline) 96 % of control.

On to `CCOc1ccc(NC(=S)NC2CCCCC2)cc1`, for which the T/C was 106 % of control under setting [5], 95 % of control under setting [7] and 96 % of control under setting [9].

`NNC(=O)c1ccccc1NCCO`: the T/C is, setting by setting: (dose: 100.0 mg/kg/injection, schedule: Q01DX001 (ip), vehicle: saline) 101 % of control; (dose: 200.0 mg/kg/injection, schedule: Q01DX001 (ip), vehicle: saline) 97 % of control; (dose: 400.0 mg/kg/injection, schedule: Q01DX001 (ip), vehicle: saline) 101 % of control.

On to `O=C1/C(=C/c2ccccc2[N+](=O)[O-])CCc2ccccc21`, for which the T/C was 96 % of control (dose: 100.0 mg/kg/injection, schedule: Q04DX003 (ip), vehicle: acetone); 106 % of control (dose: 200.0 mg/kg/injection, schedule: Q04DX003 (ip), vehicle: acetone); 95 % of control (dose: 400.0 mg/kg/injection, schedule: Q04DX003 (ip), vehicle: acetone).

Regarding `CCC(=O)Nc1cccc(OC(=O)NC(C)(C)C)c1`, the T/C runs as follows: under setting [10], 90 % of control; under setting [11], 90 % of control; under setting [12], 89 % of control.

In the case of `CCCC(=O)Oc1ccc(/C=N/NC(N)=S)nc1`, the T/C is 119 % of control (dose: 100.0 mg/kg/injection, schedule: Q01DX009 (ip), vehicle: saline with Tween-80); 113 % of control under setting [13]; 156 % of control (dose: 200.0 mg/kg/injection, schedule: Q01DX009 (ip), vehicle: saline with Tween-80); 176 % of control (dose: 400.0 mg/kg/injection, schedule: Q01DX009 (ip), vehicle: saline with Tween-80); 109 % of control (dose: 600.0 mg/kg/injection, schedule: Q01DX009 (ip), vehicle: saline with Tween-80).

Regarding `NNC(=O)c1cccs1`, the T/C is 100 % of control (dose: 25.0 mg/kg/injection, schedule: Q01DX009 (ip), vehicle: Klucel (hydroxypropylcellulose) (HPC)); 95 % of control (dose: 25.0 mg/kg/injection, schedule: Q04DX003 (ip), vehicle: Klucel (hydroxypropylcellulose) (HPC)); 100 % of control (dose: 50.0 mg/kg/injection, schedule: Q01DX001 (ip), vehicle: carboxymethylcellulose (CMC)); 103 % of control (dose: 50.0 mg/kg/injection, schedule: Q01DX009 (ip), vehicle: Klucel (hydroxypropylcellulose) (HPC)); 95 % of control (dose: 50.0 mg/kg/injection, schedule: Q04DX003 (ip), vehicle: Klucel (hydroxypropylcellulose) (HPC)); 101 % of control under setting [1].

Consider `CC(C)(C)CC(C)(C)NS(=O)(=O)CCCBr`, for which the T/C (dose: 25.0 mg/kg/injection, schedule: Q04DX003 (ip), vehicle: saline with Tween-80) is 95 % of control and the T/C (dose: 50.0 mg/kg/injection, schedule: Q04DX003 (ip), vehicle: saline with Tween-80) was 111 % of control.

Turning to `CN(C)c1ccc(/C(=N\O)c2cc[n+](C)cc2)cc1`, the T/C is, setting by setting: (dose: 1.56 mg/kg/injection, schedule: Q01DX009 (ip), vehicle: saline) 98 % of control; (dose: 3.13 mg/kg/injection, schedule: Q01DX009 (ip), vehicle: saline) 111 % of control; (dose: 6.25 mg/kg/injection, schedule: Q01DX009 (ip), vehicle: saline) 104 % of control.

For the compound `O=C(CCl)OCCCl`, the T/C is, setting by setting: (dose: 25.0 mg/kg/injection, schedule: Q04DX002 (ip), vehicle: saline with Tween-80) 95 % of control; (dose: 50.0 mg/kg/injection, schedule: Q04DX002 (ip), vehicle: saline with Tween-80) 103 % of control; under setting [13], 93 % of control and 95 % of control.

On to `O=C(O)c1cccc(F)n1`, for which the T/C was 91 % of control under setting [10] and 89 % of control under setting [11].

For `c1ccc(C2=NNC(c3ccccc3)=C(c3ccccc3)C2)cc1`, the T/C reads like this: under setting [4], 89 % of control; under setting [1], 98 % of control; under setting [6], 103 % of control; under setting [2], 100 % of control; under setting [8], 101 % of control; under setting [3], 100 % of control.

Turning to `Nc1ncnc2nc[nH]c12.[Cl][Pt][Cl]`, the T/C reads like this: (dose: 100.0 mg/kg/injection, schedule: Q01DX009 (ip), vehicle: water) 101 % of control; (dose: 100.0 mg/kg/injection, schedule: Q04DX003 (ip), vehicle: water) 94 % of control; (dose: 200.0 mg/kg/injection, schedule: Q01DX009 (ip), vehicle: water) 96 % of control; (dose: 200.0 mg/kg/injection, schedule: Q04DX003 (ip), vehicle: water) 87 % of control; (dose: 400.0 mg/kg/injection, schedule: Q01DX009 (ip), vehicle: water) 90 % of control; (dose: 400.0 mg/kg/injection, schedule: Q04DX003 (ip), vehicle: water) 94 % of control.

As for `COC(=O)C1CN1C(c1ccccc1)(c1ccccc1)c1ccccc1` (stereo not drawn), the T/C was 92 % of control (dose: 100.0 mg/kg/injection, schedule: Q01DX001 (ip), vehicle: saline with Tween-80); 94 % of control under setting [10]; 100 % of control (dose: 200.0 mg/kg/injection, schedule: Q01DX001 (ip), vehicle: saline with Tween-80); 98 % of control under setting [11]; 90 % of control (dose: 400.0 mg/kg/injection, schedule: Q01DX001 (ip), vehicle: saline with Tween-80); 90 % of control under setting [12].
